{"source": "patent US9006224B2", "about": "“Neuroendocrine tumor treatment” (Novartis AG, priority 2005, dated 2015)", "format_in_all_cases": "cell-based", "key": {"KB-31": {"system": "KB-31", "assay": "Antiproliferative activity, methylene blue staining, KB-31 line", "method": "(§1) Subsequently, a two-fold dilution series of each compound (an mTOR inhibitor other than Compound A or a known chemotherapeutic agent) is made in separate tubes (starting at 8× the IC50 of each compound) either alone or in paired combinations, and the dilutions are added to the wells.\n(§2) The cells are then re-incubated for 3 days. Methylene blue staining is performed on day 4 and the amount of bound dye (proportional to the number of surviving cells that bind the dye) determined. IC50s are subsequently determined using the Calcusyn program, which provides a measure of the interaction, namely the so-called non-exclusive combination index (CI), where: CI˜1=the interaction is nearly additive; 0.85-0.9=slight synergism; <0.85=synergy."}, "HCT116": {"system": "HCT116", "assay": "Antiproliferative activity, methylene blue staining, HCT116 line", "method": "as §1, §2"}, "[1]": {"system": "cells which are otherwise resistant to endocrine agent treatment", "assay": "In vitro studies: restoring activity of endocrine agents in resistant cells", "text": "Several studies have implicated aberrant activity of the Akt kinase as a significant mechanism by which breast cancer tumors are unresponsive to endocrine therapy."}, "[2]": {"system": "A cell line, e.g. A549, KB-31 and HCT116 lines", "assay": "Antiproliferative activity in combination with other agents (Calcusyn combination index)", "conditions": "e.g. with somastatin or a somastatin analogue, 3 days incubation, methylene blue staining", "method": "as §1, §2"}, "A549 line": {"system": "A549 line", "assay": "Antiproliferative activity, methylene blue staining, A549 line", "method": "as §1, §2"}}, "data": [{"compound": "CO[C@H]1C[C@@H]2CC[C@@H](C)[C@@](O)(O2)C(=O)C(=O)N2CCCC[C@H]2C(=O)O[C@H]([C@H](C)C[C@@H]2CC[C@@H](OCCO)[C@H](OC)C2)CC(=O)[C@H](C)/C=C(\\C)[C@@H](O)[C@@H](OC)C(=O)[C@H](C)C[C@H](C)/C=C/C=C/C=C/1C", "note": "[Compound A, 40-O-(2-hydroxyethyl)-rapamycin]", "values": [{"measurement": "IC50", "setting": "KB-31", "result": "micromolar range"}, {"measurement": "IC50", "setting": "HCT116", "result": "micromolar range"}, {"measurement": "restoration of activity of endocrine agents (estrogen inhibitors and/or aromatase inhibitors)", "setting": "[1]", "result": "able to restore activity of endocrine agents"}, {"measurement": "antiproliferative activity in combination with another chemotherapeutic agent", "setting": "[2]", "result": "interesting antiproliferative activity"}, {"measurement": "IC50", "setting": "A549 line", "result": "low nM range"}]}]}
